Measurements taken from patent publication US5242938A, “Derivatives of virginiamycin M1” (Merck & Co., Inc., priority 1992, dated 1993).
≈ marks a conversion by molar mass, not a printed value. Read-outs that look alike come from different tables or passages of the source.

Assays:
[1] = molecular target: T1, CCK-B (guinea pig cortex) (Cavia porcellus, UniProt H0VZC5); experiment: [125I]BHCCK-8 radioligand binding, guinea pig cortical preparation; settings: read-out: CCK binding inhibition - IC50, [125I]BHCCK
T1 construct: guinea pig cortical preparations; from tissue; host or cells: guinea pig brain cortex membranes
T1 sequence (H0VZC5 1-426): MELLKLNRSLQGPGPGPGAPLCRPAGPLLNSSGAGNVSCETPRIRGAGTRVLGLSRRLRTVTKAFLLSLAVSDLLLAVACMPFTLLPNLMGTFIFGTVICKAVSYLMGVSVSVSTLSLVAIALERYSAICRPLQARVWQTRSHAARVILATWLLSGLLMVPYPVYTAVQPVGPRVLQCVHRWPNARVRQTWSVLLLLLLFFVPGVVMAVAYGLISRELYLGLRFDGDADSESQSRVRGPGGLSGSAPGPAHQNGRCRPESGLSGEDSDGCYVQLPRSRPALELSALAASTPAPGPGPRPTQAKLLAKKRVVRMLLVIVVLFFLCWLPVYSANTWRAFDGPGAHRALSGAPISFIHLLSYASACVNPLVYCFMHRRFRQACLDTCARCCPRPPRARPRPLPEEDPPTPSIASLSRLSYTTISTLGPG
Description: (§1) The resulting supernatant was re-spun at 20,000×g for 20 minutes. […] Incubations were for 40 minutes at 4° C. and were terminated by filtration and washing with ice cold 100 mM saline. […] Incubations were for 30 minutes at room temperature and were terminated by filtration over GF/C filters and washing with 100 mM NaCl.

CCK-A (rat pancreas) [2] = molecular target: T2, CCK-A (rat pancreas) (Rattus norvegicus, UniProt P30551); experiment: [125I]BHCCK-8 radioligand binding, rat pancreatic preparation; settings: read-out: CCK binding inhibition - IC50, [125I]BHCCK
T2 construct: from tissue; host or cells: rat pancreas
T2 sequence (P30551 1-444): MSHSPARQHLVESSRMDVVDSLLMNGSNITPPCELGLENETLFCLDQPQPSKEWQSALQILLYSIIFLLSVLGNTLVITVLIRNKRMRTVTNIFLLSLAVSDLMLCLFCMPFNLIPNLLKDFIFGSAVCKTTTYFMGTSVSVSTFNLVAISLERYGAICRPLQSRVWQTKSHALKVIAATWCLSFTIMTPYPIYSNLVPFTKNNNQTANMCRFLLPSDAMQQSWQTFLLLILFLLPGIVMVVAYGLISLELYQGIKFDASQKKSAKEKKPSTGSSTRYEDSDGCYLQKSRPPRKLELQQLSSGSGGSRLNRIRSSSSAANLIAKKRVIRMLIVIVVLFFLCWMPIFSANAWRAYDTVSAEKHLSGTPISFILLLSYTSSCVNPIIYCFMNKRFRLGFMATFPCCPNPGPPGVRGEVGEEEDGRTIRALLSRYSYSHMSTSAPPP
Description: as §1

CCK-A (rat pancreas) [3] = molecular target: T2, CCK-A (rat pancreas); experiment: [3H]L-364,718 CCK-A selective antagonist ligand binding, pancreas; settings: for IC50: read-out: CCK binding inhibition - IC50, [3H]L-364,718; for A.R. = agonist ratio: [3H]L-364,718 / [125I]BHCCK
Description: as §1

[4] = test system: Pseudomonas stutzeri (Mb 1231, ATCC 11607); experiment: Agar diffusion disc assay, Pseu 1231; format: cell-based; settings: Stutzerimonas stutzeri, ATCC11607, 18 h; @ 20 g/disc; read-out: Inhibition zone diameter, Pseu 1231
How it was run: (§2)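 Paper-disc agar diffusion per Barry. Methanol stock 1 mg/ml, serial dilutions, 20 μl per 6 mm disc, air dried. Seeded plates ~10^6 cfu, ~18 h, 25° C. Zones to nearest mm; n=3, mean.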

[5] = test system: Streptococcus faecium (Mb 2820); experiment: Agar diffusion disc assay, Str 2820; format: cell-based; settings: Enterococcus faecium, 18 h; @ 20 g/disc; read-out: Inhibition zone diameter, Str 2820
How it was run: as §2

[6] = test system: Corynebacterium pseudodiphtheriticum (Mb 261, ATCC 9742); experiment: Agar diffusion disc assay, Cory 261; format: cell-based; settings: Corynebacterium pseudodiphtheriticum, ATCC9742, 18 h; @ 20 g/disc; read-out: Inhibition zone diameter, Cory 261
How it was run: as §2

[7] = test system: Salmonella gallinarum (Mb 1287); experiment: Agar diffusion disc assay, Salm 1287; format: cell-based; settings: Salmonella enterica, GALLINARUM, 18 h; @ 20 g/disc; read-out: Inhibition zone diameter, Salm 1287
How it was run: as §2

[8] = test system: Escherichia coli (Mb 1418); experiment: Agar diffusion disc assay, Coli 1418; format: cell-based; settings: Escherichia coli, 18 h; @ 20 g/disc; read-out: Inhibition zone diameter, Coli 1418
How it was run: as §2

Bacillus sp. (Mb 633) = experiment: Agar diffusion disc assay, Baci 633; format: cell-based; settings: Bacillus, 18 h
How it was run: as §2

[9] = test system: Staphylococcus aureus (Mb 108, ATCC 6538P); experiment: Agar diffusion disc assay, Sta 108; format: cell-based; settings: Staphylococcus aureus, ATCC6538P, 18 h; @ 20 g/disc; read-out: Inhibition zone diameter, Sta 108
How it was run: as §2

[10] = test system: Staphylococcus aureus (Mb 2983); experiment: Agar diffusion disc assay, Sta 2983; format: cell-based; settings: Staphylococcus aureus, 18 h; @ 20 g/disc; read-out: Inhibition zone diameter, Sta 2983
How it was run: as §2

[11] = test system: Streptococcus agalactiae (Mb 2875); experiment: Agar diffusion disc assay, Str 2875; format: cell-based; settings: Streptococcus agalactiae, 18 h; @ 20 g/disc; read-out: Inhibition zone diameter, Str 2875
How it was run: as §2

[12] = test system: Micrococcus luteus (Mb 1101, ATCC 9341); experiment: Agar diffusion disc assay, Micr 1101; format: cell-based; settings: Micrococcus luteus; for MIC: read-out: Agar Diffusion MIC versus Micrococcus luteus; for zone of inhibition at 10 µg/disc: 10.0 μg/disc; for zone of inhibition at 5 µg/disc: 5.00 μg/disc
How it was run: as §2

[13] = test system: En terobacter aergenes (Mb 835); experiment: Agar diffusion disc assay, Ent 835; format: cell-based; settings: 18 h; @ 20 g/disc; read-out: Inhibition zone diameter, Ent 835
How it was run: as §2

[14] = test system: Bacillus subtilis (Mb 964, ATCC 6633); experiment: Agar diffusion disc assay, Subt 964; format: cell-based; settings: Bacillus subtilis, ATCC6633, 18 h; @ 20 g/disc; read-out: Inhibition zone diameter, Subt 964
How it was run: as §2

[15] = molecular target: T1, CCK-B (guinea pig cortex); experiment: [3H]L-365,260 CCK-B selective antagonist ligand binding, brain membranes; settings: for IC50: read-out: CCK binding inhibition - IC50, [3H]L-365,260
Description: as §1

gastric acid secretion = settings: cited from earlier work
[16] = @ 20 g/disc, read-out: Inhibition zone diameter, Baci 633
[17] = ATCC9341, 18 h, @ 20 g/disc, read-out: Inhibition zone diameter, Micr 1101
[18] = ATCC9341, 25° C., ~18 hours, read-out: Mean of triplicate zone size versus Micrococcus luteus
[19] = ATCC9341, 20.0 μg/disc, 25° C., ~18 hours, read-out: Mean of triplicate zone size versus Micrococcus luteus

| Compound | IC50 [1] | IC50 (CCK-A (rat pancreas) [2]) | IC50 (CCK-A (rat pancreas) [3]) | zone of inhibition at 20 µg/disc [4] | zone of inhibition at 20 µg/disc [5] | zone of inhibition at 20 µg/disc [6] | zone of inhibition at 20 µg/disc [7] | zone of inhibition at 20 µg/disc [8] | zone of inhibition at 20 µg/disc (Bacillus sp. (Mb 633); [16]) | zone of inhibition at 20 µg/disc [9] | zone of inhibition at 20 µg/disc [10] | zone of inhibition at 20 µg/disc [11] | zone of inhibition at 20 µg/disc [12, 17] | MIC ([12]; ATCC9341, 18 h) | zone of inhibition at 10 µg/disc [12, 18] | zone of inhibition at 20 µg/disc [12, 19] | zone of inhibition at 20 µg/disc [13] | zone of inhibition at 20 µg/disc [14] | A.R. = agonist ratio = IC50([3H]L365,260)/IC50([125I]CCK) [15] | IC50 [15] | further results |
| --- | --- | --- | --- | --- | --- | --- | --- | --- | --- | --- | --- | --- | --- | --- | --- | --- | --- | --- | --- | --- | --- |
| CC1=C\[C@@H](OC(=O)Nc2cccc([N+](=O)[O-])c2)CC(=O)Cc2nc(co2)C(=O)N2CCC=C2C(=O)O[C@H](C(C)C)[C@H](C)/C=C/C(=O)NC\C=C\1 [Example 9] | 400 nM | > 3000 nM | > 3000 nM | 0 mm | 0 mm | 0 mm | 0 mm | 0 mm | 0 mm | 0 mm | 0 mm | 0 mm | 8 mm | 0.82 µM (≈ 0.566 µg/mL) | 8 mm | 9 mm | 0 mm | 0 mm | 12.9 | 5200 nM | zone of inhibition at 40 µg/disc ([12]; ATCC9341, 40.0 μg/disc, 25° C., ~18 hours, read-out: Mean of triplicate zone size versus Micrococcus luteus): 10 mm; zone of inhibition at 80 µg/disc ([12]; ATCC9341, 80.0 μg/disc, 25° C., ~18 hours, read-out: Mean of triplicate zone size versus Micrococcus luteus): 11 mm; zone of inhibition at 160 µg/disc ([12]; ATCC9341, 160 μg/disc, 25° C., ~18 hours, read-out: Mean of triplicate zone size versus Micrococcus luteus): 11 mm |
| CC1=C\[C@@H](OC(=O)Nc2ccc([N+](=O)[O-])cc2)CC(=O)Cc2nc(co2)C(=O)N2CCC=C2C(=O)O[C@H](C(C)C)[C@H](C)/C=C/C(=O)NC\C=C\1 [Example 10] | 1600 nM | > 3000 nM | > 3000 nM | 0 mm | 0 mm | 9 mm | 0 mm | 0 mm | 0 mm | 9 mm | 0 mm | 0 mm | 13 mm | 3.94 µM (≈ 2.72 µg/mL) | 10 mm | 12 mm | 0 mm | 0 mm | 8.7 | 13100 nM | zone of inhibition at 5 µg/disc [12, 18]: 7 mm |
| CC1=C\[C@@H](OC(=O)Nc2ccccc2)CC(=O)Cc2nc(co2)C(=O)N2CCC=C2C(=O)O[C@H](C(C)C)[C@H](C)/C=C/C(=O)NC\C=C\1 [Example 11] | 300 nM | 2300 nM | 4000 nM | 0 mm | 0 mm | 0 mm | 0 mm | 0 mm | 0 mm | 0 mm | 0 mm | 0 mm | 14 mm | 0.05 µM (≈ 0.0322 µg/mL) | 12 mm | 12 mm | 0 mm | 0 mm | 5.3 | 1600 nM | A.R. = agonist ratio (CCK-A (rat pancreas) [3]): 1.7; zone of inhibition at 1.25 µg/disc ([12]; ATCC9341, 1.25 μg/disc, 25° C., ~18 hours, read-out: Mean of triplicate zone size versus Micrococcus luteus): 7 mm; zone of inhibition at 2.5 µg/disc ([12]; ATCC9341, 2.50 μg/disc, 25° C., ~18 hours, read-out: Mean of triplicate zone size versus Micrococcus luteus): 10 mm; zone of inhibition at 5 µg/disc [12, 18]: 11 mm |
| CC1=C\[C@@H](OC(=O)Nc2cccc(C)c2)CC(=O)Cc2nc(co2)C(=O)N2CCC=C2C(=O)O[C@H](C(C)C)[C@H](C)/C=C/C(=O)NC\C=C\1 [Example 12] | 400 nM | 1900 nM | 8000 nM | 0 mm | 0 mm | 0 mm | 0 mm | 0 mm | – | 0 mm | 0 mm | 0 mm | 9 mm | > 243 µM | – | – | 0 mm | 0 mm | 7.5 | 3000 nM | A.R. = agonist ratio (CCK-A (rat pancreas) [3]): 4.2; zone of inhibition at 20 µg/disc (Bacillus sp. (Mb 633); read-out: Inhibition zone diameter, Baci 633, @ 20 g/disc): 0 mm |
| Gastrin-17 | – | – | – | – | – | – | – | – | – | – | – | – | – | – | – | – | – | – | – | – | potency for stimulating gastric acid secretion relative to Gastrin-13 (gastric acid secretion): 2.5 times; potency for stimulating gastric acid secretion relative to Gastrin-34 (gastric acid secretion): 5 times |
